{"source": "the supplement of paper PMC10307832", "assay_in_all_cases": "relative viability (nuclei count vs DMSO), 5 days (fraction); higher = more cells survive", "key": {"[1]": {"compound": "NC(=O)[C@@H](CCC(F)(F)F)N(Cc1ccc(-c2ncon2)cc1F)S(=O)(=O)c1ccc(Cl)cc1 [Avagacestat] + Nc1nc2[nH]cc(CCc3ccc(C(=O)N[C@@H](CCC(=O)O)C(=O)O)cc3)c2c(=O)[nH]1 [Pemetrexed] (partner 0.2 µM)", "method_in_brief": "(§1)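 Relative viability is defined as nuclei in treated wells over nuclei in vehicle wells. Duplicate plates were run and medians reported. Lung cancer cell lines in 1536-well plates were dosed by pin tool one day after seeding, with one drug or with a fixed anchor-drug dose plus five library-drug doses (not always all listed) in √10 steps, and nuclei were counted after 5 days.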"}, "[2]": {"compound": "NC(=O)[C@@H](CCC(F)(F)F)N(Cc1ccc(-c2ncon2)cc1F)S(=O)(=O)c1ccc(Cl)cc1 [Avagacestat] + COc1cccc2cc(-c3nc([C@H]4CC[C@H](C(=O)O)CC4)n4ncnc(N)c34)[nH]c12 [OSI-027] (partner 0.5 µM)", "method_in_brief": "as §1"}, "[3]": {"compound": "NC(=O)[C@@H](CCC(F)(F)F)N(Cc1ccc(-c2ncon2)cc1F)S(=O)(=O)c1ccc(Cl)cc1 [Avagacestat] + COc1cc2c(Oc3ccc(NC(=O)C4(C(=O)Nc5ccc(F)cc5)CC4)cc3F)ccnc2cc1OCCCN1CCOCC1 [Foretinib] (partner 0.25 µM)", "method_in_brief": "as §1"}, "[4]": {"compound": "NC(=O)[C@@H](CCC(F)(F)F)N(Cc1ccc(-c2ncon2)cc1F)S(=O)(=O)c1ccc(Cl)cc1 [Avagacestat] + NC(=O)Nc1cc(-c2cccc(F)c2)sc1C(=O)N[C@H]1CCCNC1 [AZD7762] (partner 0.2 µM)", "method_in_brief": "as §1"}}}
{"cell line": "NCI-H2009", "values": [{"measurement": "relative viability", "setting": "[1]; first compound 0.08 µM", "result": 1.16}, {"measurement": "relative viability", "setting": "[1]; first compound 0.253 µM", "result": 1.15}, {"measurement": "relative viability", "setting": "[1]; first compound 0.8 µM", "result": 1.11}, {"measurement": "relative viability", "setting": "[1]; first compound 2.53 µM", "result": 1.02}, {"measurement": "relative viability", "setting": "[1]; first compound 8 µM", "result": 0.975}, {"measurement": "relative viability", "setting": "[2]; first compound 0.08 µM", "result": 0.708}, {"measurement": "relative viability", "setting": "[2]; first compound 0.253 µM", "result": 0.749}, {"measurement": "relative viability", "setting": "[2]; first compound 0.8 µM", "result": 0.662}, {"measurement": "relative viability", "setting": "[2]; first compound 2.53 µM", "result": 0.579}, {"measurement": "relative viability", "setting": "[2]; first compound 8 µM", "result": 0.563}, {"measurement": "relative viability", "setting": "[3]; first compound 0.08 µM", "result": 1.31}, {"measurement": "relative viability", "setting": "[3]; first compound 0.253 µM", "result": 1.39}, {"measurement": "relative viability", "setting": "[3]; first compound 0.8 µM", "result": 1.24}, {"measurement": "relative viability", "setting": "[3]; first compound 2.53 µM", "result": 1.24}, {"measurement": "relative viability", "setting": "[3]; first compound 8 µM", "result": 1.21}]}
{"cell line": "NCI-H1563", "values": [{"measurement": "relative viability", "setting": "[1]; first compound 0.08 µM", "result": 0.811}, {"measurement": "relative viability", "setting": "[1]; first compound 0.253 µM", "result": 0.664}, {"measurement": "relative viability", "setting": "[1]; first compound 0.8 µM", "result": 0.82}, {"measurement": "relative viability", "setting": "[1]; first compound 2.53 µM", "result": 0.711}, {"measurement": "relative viability", "setting": "[1]; first compound 8 µM", "result": 0.683}, {"measurement": "relative viability", "setting": "[2]; first compound 0.08 µM", "result": 0.829}, {"measurement": "relative viability", "setting": "[2]; first compound 0.253 µM", "result": 0.776}, {"measurement": "relative viability", "setting": "[2]; first compound 0.8 µM", "result": 0.736}, {"measurement": "relative viability", "setting": "[2]; first compound 2.53 µM", "result": 0.735}, {"measurement": "relative viability", "setting": "[2]; first compound 8 µM", "result": 0.719}, {"measurement": "relative viability", "setting": "[3]; first compound 0.08 µM", "result": 1.1}, {"measurement": "relative viability", "setting": "[3]; first compound 0.253 µM", "result": 0.999}, {"measurement": "relative viability", "setting": "[3]; first compound 0.8 µM", "result": 0.879}, {"measurement": "relative viability", "setting": "[3]; first compound 2.53 µM", "result": 0.803}, {"measurement": "relative viability", "setting": "[3]; first compound 8 µM", "result": 0.842}]}
{"cell line": "EBC-1", "values": [{"measurement": "relative viability", "setting": "[3]; first compound 0.08 µM", "result": 0.114}, {"measurement": "relative viability", "setting": "[3]; first compound 0.253 µM", "result": 0.113}, {"measurement": "relative viability", "setting": "[3]; first compound 0.8 µM", "result": 0.123}, {"measurement": "relative viability", "setting": "[3]; first compound 2.53 µM", "result": 0.11}, {"measurement": "relative viability", "setting": "[3]; first compound 8 µM", "result": 0.107}]}
{"cell line": "UMC-11", "values": [{"measurement": "relative viability", "setting": "[1]; first compound 0.08 µM", "result": 0.884}, {"measurement": "relative viability", "setting": "[1]; first compound 0.253 µM", "result": 0.887}, {"measurement": "relative viability", "setting": "[1]; first compound 0.8 µM", "result": 1.01}, {"measurement": "relative viability", "setting": "[1]; first compound 2.53 µM", "result": 0.796}, {"measurement": "relative viability", "setting": "[1]; first compound 8 µM", "result": 0.718}, {"measurement": "relative viability", "setting": "[2]; first compound 0.08 µM", "result": 0.52}, {"measurement": "relative viability", "setting": "[2]; first compound 0.253 µM", "result": 0.454}, {"measurement": "relative viability", "setting": "[2]; first compound 0.8 µM", "result": 0.503}, {"measurement": "relative viability", "setting": "[2]; first compound 2.53 µM", "result": 0.461}, {"measurement": "relative viability", "setting": "[2]; first compound 8 µM", "result": 0.465}, {"measurement": "relative viability", "setting": "[3]; first compound 0.08 µM", "result": 1.19}, {"measurement": "relative viability", "setting": "[3]; first compound 0.253 µM", "result": 1.15}, {"measurement": "relative viability", "setting": "[3]; first compound 0.8 µM", "result": 1.26}, {"measurement": "relative viability", "setting": "[3]; first compound 2.53 µM", "result": 1.13}, {"measurement": "relative viability", "setting": "[3]; first compound 8 µM", "result": 1.06}]}
{"cell line": "NCI-H520", "values": [{"measurement": "relative viability", "setting": "[1]; first compound 0.08 µM", "result": 0.792}, {"measurement": "relative viability", "setting": "[1]; first compound 0.253 µM", "result": 0.801}, {"measurement": "relative viability", "setting": "[1]; first compound 0.8 µM", "result": 0.844}, {"measurement": "relative viability", "setting": "[1]; first compound 2.53 µM", "result": 0.703}, {"measurement": "relative viability", "setting": "[1]; first compound 8 µM", "result": 0.559}, {"measurement": "relative viability", "setting": "[2]; first compound 0.08 µM", "result": 0.241}, {"measurement": "relative viability", "setting": "[2]; first compound 0.253 µM", "result": 0.316}, {"measurement": "relative viability", "setting": "[2]; first compound 0.8 µM", "result": 0.22}, {"measurement": "relative viability", "setting": "[2]; first compound 2.53 µM", "result": 0.249}, {"measurement": "relative viability", "setting": "[2]; first compound 8 µM", "result": 0.215}, {"measurement": "relative viability", "setting": "[3]; first compound 0.08 µM", "result": 0.755}, {"measurement": "relative viability", "setting": "[3]; first compound 0.253 µM", "result": 0.753}, {"measurement": "relative viability", "setting": "[3]; first compound 0.8 µM", "result": 0.731}, {"measurement": "relative viability", "setting": "[3]; first compound 2.53 µM", "result": 0.657}, {"measurement": "relative viability", "setting": "[3]; first compound 8 µM", "result": 0.629}]}
{"cell line": "NCI-H727", "values": [{"measurement": "relative viability", "setting": "[4]; first compound 0.08 µM", "result": 0.678}, {"measurement": "relative viability", "setting": "[4]; first compound 0.253 µM", "result": 0.651}, {"measurement": "relative viability", "setting": "[4]; first compound 0.8 µM", "result": 0.78}, {"measurement": "relative viability", "setting": "[4]; first compound 2.53 µM", "result": 0.651}, {"measurement": "relative viability", "setting": "[4]; first compound 8 µM", "result": 0.784}, {"measurement": "relative viability", "setting": "[2]; first compound 0.08 µM", "result": 0.675}, {"measurement": "relative viability", "setting": "[2]; first compound 0.253 µM", "result": 0.632}, {"measurement": "relative viability", "setting": "[2]; first compound 0.8 µM", "result": 0.92}, {"measurement": "relative viability", "setting": "[2]; first compound 2.53 µM", "result": 0.521}, {"measurement": "relative viability", "setting": "[2]; first compound 8 µM", "result": 0.517}, {"measurement": "relative viability", "setting": "[3]; first compound 0.08 µM", "result": 0.947}, {"measurement": "relative viability", "setting": "[3]; first compound 0.253 µM", "result": 0.932}, {"measurement": "relative viability", "setting": "[3]; first compound 0.8 µM", "result": 0.803}, {"measurement": "relative viability", "setting": "[3]; first compound 2.53 µM", "result": 0.783}, {"measurement": "relative viability", "setting": "[3]; first compound 8 µM", "result": 0.881}]}
